Laboratory results as given in paper PMC12261219, “Comparative Evaluation of Thiol- and Amine-Conjugating Moieties for Endogenous Albumin Binding after Intravenous Administration” (ACS Pharmacology & Translational Science, 2025).
“And” between values parts separate entries of the source, which are not always exact repeats. Equal entries are not always repeated.

Assays:
CT26 colon cancer cells = details: i.v.
Procedure: CT26 cells (5 × 10^5 in serum-free medium) were injected s.c. into the right flank of male Balb/c mice. […] 0.9% NaCl served as solvent control. Animals were controlled for distress development every day and tumor size was assessed regularly by caliper measurement. Tumor volume was calculated using the formula: (length × width^2)/2. In the overall survival experiments, mice were sacrificed by cervical dislocation in the case of a tumor length >20 mm, tumor ulceration or body weight loss >20%.

albumin (human serum) = molecular target: T1, albumin (human serum) (Homo sapiens, UniProt P02768); experiment: SEC-ICP-MS albumin binding in human serum; type: in vitro ADME; details: for Pt195 in HMWF (albumin-bound) / Pt195 in LMWF: 100 µM, 37 °C; for Bound to albumin: from 1 to 24 h
T1 construct: Human serum was purchased from Sigma-Aldrich; tissue Sigma-Aldrich; host or cells: human serum
T1 sequence (P02768 25-609): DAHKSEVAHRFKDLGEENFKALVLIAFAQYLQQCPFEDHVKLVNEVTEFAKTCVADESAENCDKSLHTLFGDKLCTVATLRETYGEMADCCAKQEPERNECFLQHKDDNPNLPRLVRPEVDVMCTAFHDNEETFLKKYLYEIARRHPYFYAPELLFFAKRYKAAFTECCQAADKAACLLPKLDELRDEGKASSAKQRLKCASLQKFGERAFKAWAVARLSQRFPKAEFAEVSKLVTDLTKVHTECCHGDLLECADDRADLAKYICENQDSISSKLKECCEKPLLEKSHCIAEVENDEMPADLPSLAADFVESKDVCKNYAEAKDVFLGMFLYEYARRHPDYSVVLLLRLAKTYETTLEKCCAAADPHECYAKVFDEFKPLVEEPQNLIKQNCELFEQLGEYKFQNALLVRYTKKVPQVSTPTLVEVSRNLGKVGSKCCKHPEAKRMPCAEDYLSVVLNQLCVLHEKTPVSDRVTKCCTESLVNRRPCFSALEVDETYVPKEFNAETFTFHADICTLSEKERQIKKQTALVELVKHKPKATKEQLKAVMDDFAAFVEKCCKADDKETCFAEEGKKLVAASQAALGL
Procedure: Blood of Bab/c mice was collected under anesthesia via heart puncture. […] Human serum was purchased from Sigma-Aldrich. In order to guarantee a stable pH, all sera were buffered with 150 mM phosphate to pH 7.4 by dissolving the necessary amounts of Na2HPO4 and NaH2PO4 directly in the serum. […] The samples were then incubated in the autosampler at 37 °C and analyzed every hour for 4 or 5 h and after 24 h. Between each sample a pure water blank was measured. For measurements with 10 min intervals the same procedure was followed, but the blank measurements were omitted. For SEC-ICP-MS measurements an Agilent 1260 Infinity system coupled to an Agilent 7800 ICP-HRMS equipped with a dynamic reaction cell was used. Oxygen (purity 5.5, Messer Austria GmbH, Gumpoldskirchen, Austria) was used as reaction gas.

[1] = equimolar to 9 mg/kg oxaliplatin, days 4, 8, 12

SMILES	Impact on tumor growth (CT26 colon cancer cells; [1])	Increase of overall survival compared to solvent control (CT26 colon cancer cells; [1]) [%]	Tolerability (body weight) (CT26 colon cancer cells; three administrations over 2 weeks (days 4, 8, 12))	Pt195 in HMWF (albumin-bound) (albumin (human serum); pH 7.4, 0 h)	Pt195 in LMWF (albumin (human serum); pH 7.4, 0 h) [%]	Pt195 in HMWF (albumin-bound) (albumin (human serum); pH 7.4, 1 h)	Pt195 in LMWF (albumin (human serum); pH 7.4, 1 h) [%]	Pt195 in HMWF (albumin-bound) (albumin (human serum); pH 7.4, 2 h) [%]	Pt195 in LMWF (albumin (human serum); pH 7.4, 2 h) [%]	Pt195 in HMWF (albumin-bound) (albumin (human serum); pH 7.4, 3 h) [%]	Pt195 in LMWF (albumin (human serum); pH 7.4, 3 h) [%]	Pt195 in HMWF (albumin-bound) (albumin (human serum); pH 7.4, 4 h) [%]	Pt195 in LMWF (albumin (human serum); pH 7.4, 4 h) [%]	Pt195 in HMWF (albumin-bound) (albumin (human serum); pH 7.4, 5 h) [%]	Pt195 in LMWF (albumin (human serum); pH 7.4, 5 h) [%]	Pt195 in HMWF (albumin-bound) (albumin (human serum); pH 7.4, 24 h) [%]	Pt195 in LMWF (albumin (human serum); pH 7.4, 24 h) [%]	Bound to albumin (albumin (human serum)) [%]	Maximum albumin binding (albumin (human serum); reached after several hours) [%]	Prolonged overall survival compared to solvent-treated animals (CT26 colon cancer cells; [1])
CC(=O)[O][Pt-2]12([O]C(=O)NCCOCCOCCOCCOc3ccc(-c4nnc(S(C)(=O)=O)o4)cc3)([NH2+][C@@H]3CCCC[C@H]3[NH2+]1)[O]C(=O)C(=O)[O]2 [PODS-Ox-OAc, (OC-6–34)-Acetato[(1R,2R)-1,2-cyclohexane-1,2-diamino][(2-(2-(2-(2-(4-(5-(methylsulfonyl)-1,3,4-oxadiazol-2-yl)-phenoxy)-ethoxy)-ethoxy)-ethoxy)-ethyl)-carbamato]-oxalato platinum(IV)]	slight remission or stable disease	~80	well-tolerated	2% and < 5%	98	87% and ~90%	13	91	9	92	8	92	8	92	8	92	8	~90		
CC(=O)[O][Pt-2]12([O]C(=O)NCCOCCOCCOCCOC(=O)C3=CCCCC3S(=O)(=O)Nc3ccc(F)cc3F)([NH2+]C3CCCCC3[NH2+]1)[O]C(=O)C(=O)[O]2 (mixture of isomers) [DFSA-Ox-OAc, (OC-6–34)-Acetato[(1R,2R)-1,2-cyclohexane-1,2-diamino][(1-(6-(N-(2,4-difluorophenyl)-sulfamoyl)-cyclohex-1-en-1-yl)-1-oxo-2,5,8,11-tetraoxatridecan-13-yl)-carbamato]-oxalato platinum(IV)]				0%	100	34%	66	50	50	59	41	63	37	66	34	59	41		66	
CC(=O)[O][Pt-2]12([O]C(=O)NCCOCCOCCOCCOCCN3C(=O)C=CC3=O)([NH2+][C@@H]3CCCC[C@H]3[NH2+]1)[O]C(=O)C(=O)[O]2 [Mal-Ox-OAc, (OC-6–34)-Acetato[(1R,2R)-1,2-cyclohexane-1,2-diamino][ (14-(2,5-dioxo-2,5-dihydro-1H-pyrrol-1-yl)-3,6,9,12-tetraoxatetradecyl)-carbamato]-oxalato platinum(IV)]	distinctly reduced tumor growth	~50		29%	71	94% and ~90%	6	94	6	94	6	94	6	94	6	93	7	~90		about 10 days
